Assay results: US12139487B2, “Compounds and uses thereof” (Foghorn Therapeutics Inc., priority 2022, dated 2024)

Test system: BRM-dependent transcription (BRG1 mutant lung cancer cell line A549)
Test: BRM-dependent transcription, MMTV luciferase reporter in BRG1 mutant A549 cells
Format: cell-based
Conditions: Table 11; for IC50: A549-MMTV luciferase reporter, dexamethasone induced, 6 hours; for Ratio (MDA-MMTV IC50 (μM) divided by A549-MMTV IC50 (μM)): MMTV luciferase reporter cell lines, selectivity BRG1/BRM
Procedure, shortened: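 Compound dose series added to dexamethasone-stimulated A549 cells (BRG1 mutant) carrying a BRM-dependent mouse mammary tumor virus luciferase reporter; luminescence measured at 6 h post-stimulation.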

| Compound | IC50 (Homo sapiens, A549, 6 h) [nM] | Ratio (MDA-MMTV IC50 (μM) divided by A549-MMTV IC50 (μM)) | IC50 [nM] |
| --- | --- | --- | --- |
| O=C(NCc1cc2nc(-c3cccc(OC(F)F)c3F)ccc2cn1)c1cc(Cl)c2c(c1)S(=O)(=O)[C@@H](F)COC2 [Compound 444] | 22.6 | 24.79 | – |
| CCOc1nc(C(C)(F)F)ccc1-c1ccc2cnc(CNC(=O)c3cc(Cl)c4c(c3)S(=O)(=O)[C@@H](F)COC4)cc2n1 [Compound 445] | 21.2 | 22.07 | – |
| [2H]C([2H])([2H])C([2H])([2H])Oc1nc(C(F)F)ccc1-c1ccc2cnc(CNC(=O)c3cc(C(F)F)c4c(c3)S(=O)(=O)[C@@H](F)COC4)cc2n1 [Compound 446] | 13.5 | 29.71 | – |
| O=C(NCc1cc2nc(-c3ccc(OC(F)F)c([C@H]4CC4(F)F)n3)ccc2cn1)c1cc(Cl)c2c(c1)S(=O)(=O)[C@@H](F)COC2 [Compound 447] | 13.8 | 22.11 | – |
| O=C(NCc1cc2nc(-c3ccc(OC(F)F)c(C4CC4(F)F)n3)ccc2cn1)c1cc(Br)c2c(c1)S(=O)(=O)[C@@H](F)CCO2 (stereo partly shown) [Compound 448] | 19 | 37.60 | – |
| O=C(NCc1cc2nc(-c3ccc(OC(F)F)c([C@@H]4CC4(F)F)n3)ccc2cn1)c1cc(Cl)c2c(c1)S(=O)(=O)[C@@H](F)COC2 [Compound 449] | 7.4 | 37.87 | – |
| COc1nc([C@@H](F)CF)ccc1-c1ccc2cnc(CNC(=O)c3cc(Br)c4c(c3)S(=O)(=O)[C@@H](F)COC4)cc2n1 [Compound 450] | 15.4 | 35.43 | – |
| O=C(NCc1cc2nc(-c3ccc(OC(F)F)c([C@@H]4CC4(F)F)n3)ccc2cn1)c1cc(C(F)F)c2c(c1)S(=O)(=O)[C@@H](F)COC2 [Compound 451] | 5.6 | 25.86 | – |
| O=C(NCc1cc2nc(-c3cncc(OC(F)F)n3)ccc2cn1)c1cc(Cl)c2c(c1)S(=O)(=O)[C@@H](F)COC2 [Compound 452] | 20.4 | 28.85 | – |
| O=C(NCc1cc2nc(-c3ccc([C@H](F)C(F)F)c(C4CC4)n3)ccc2cn1)c1cc(F)c2c(c1)S(=O)(=O)[C@@H](F)COC2 [Compound 453] | 8.8 | 28.72 | – |
| [2H]C([2H])([2H])C([2H])([2H])Oc1nc([C@@H](F)CF)ccc1-c1ccc2cnc(CNC(=O)c3cc(Cl)c4c(c3)S(=O)(=O)[C@@H](F)CCO4)cc2n1 [Compound 454] | 14.2 | 29.67 | – |
| [2H]C([2H])([2H])Oc1ccc(-c2ccc3cnc(CNC(=O)c4cc(C(F)F)c5c(c4)S(=O)(=O)[C@@H](F)COC5)cc3n2)nc1C1CC1(F)F (stereo partly shown) [Compound 455] | 10.4 | 45.81 | – |
| CCOc1nc([C@@H](F)CF)ccc1-c1ccc2cnc(CNC(=O)c3cc(Br)c4c(c3)S(=O)(=O)[C@@H](F)COC4)cc2n1 [Compound 456] | – | 40.89 | 9.7 |
| CCOc1nc([C@@H](F)CF)ccc1-c1ccc2cnc(CNC(=O)c3cc(C(F)F)c4c(c3)S(=O)(=O)[C@@H](F)COC4)cc2n1 [Compound 457] | – | 33.28 | 7.2 |
| O=C(NCc1cc2nc(-c3cccc4c3OC(F)(F)O4)ccc2cn1)c1cc(F)c2c(c1)S(=O)(=O)[C@@H](F)COC2 [Compound 458] | 15.6 | 23.65 | – |
| [2H]C([2H])([2H])Oc1ccc(-c2ccc3cnc(CNC(=O)c4cc(C(F)F)c5c(c4)S(=O)(=O)[C@@H](F)COC5)cc3n2)nc1[C@H]1CC1(F)F [Compound 459] | 15.3 | 27.87 | – |

| Compound | IC50 (Homo sapiens, A549, 6 h) [nM] | Ratio (MDA-MMTV IC50 (μM) divided by A549-MMTV IC50 (μM)) | IC50 [nM] |
| --- | --- | --- | --- |
| CCOc1nc([C@H](F)CF)ccc1-c1ccc2cnc(CNC(=O)c3cc(C(F)F)c4c(c3)S(=O)(=O)[C@@H](F)COC4)cc2n1 [Compound 460] | – | 41.47 | 10 |
| CCOc1nc([C@H](F)CF)ccc1-c1ccc2cnc(CNC(=O)c3cc(Br)c4c(c3)S(=O)(=O)[C@@H](F)COC4)cc2n1 [Compound 461] | 25.9 | 56.88 | – |
| COCCOc1cnc2c(c1)C(F)(F)CCN2c1ccc2cnc(CNC(=O)c3cc(Br)c4c(c3)S(=O)(=O)[C@@H](F)CCO4)cc2n1 [Compound 462] | 8.1 | 25.94 | – |
| [2H]C([2H])([2H])C([2H])([2H])Oc1ccc(-c2ccc3cnc(CNC(=O)c4cc(F)c5c(c4)S(=O)(=O)[C@@H](F)COC5)cc3n2)nc1C1CC1(F)F (stereo partly shown) [Compound 463] | 6.2 | 35.00 | – |
| [2H]C([2H])([2H])C([2H])([2H])Oc1ccc(-c2ccc3cnc(CNC(=O)c4cc(F)c5c(c4)S(=O)(=O)[C@@H](F)COC5)cc3n2)nc1[C@@H]1CC1(F)F [Compound 464] | 7.1 | 39.23 | – |
| O=C(NCc1cc2nc(-c3cnc(OC(F)F)c(C4CC4)n3)ccc2cn1)c1cc(C(F)F)c2c(c1)S(=O)(=O)[C@@H](F)COC2 [Compound 465] | 22.6 | 55.20 | – |
| CN1Cc2c(Cl)cc(C(=O)NCc3cc4nc(-c5cccc(OC(F)F)n5)ccc4cn3)cc2S(=O)(=O)[C@H](F)C1 [Compound 466] | 24.6 | 48.16 | – |
| COc1nc(C(C)(F)F)ccc1-c1ccc2cnc(CNC(=O)c3cc(C(F)F)c4c(c3)S(=O)(=O)[C@@H](F)COC4)cc2n1 [Compound 467] | 17 | 24.85 | – |
| CCOc1nc(C(C)(F)F)ccc1-c1ccc2cnc(CNC(=O)c3cc(F)c4c(c3)S(=O)(=O)[C@@H](F)COC4)cc2n1 [Compound 468] | – | 25.28 | 4.2 |
| C[C@@H]1CCN1c1cnc2c(-c3ccc4cnc(CNC(=O)c5cc(F)c6c(c5)S(=O)(=O)[C@@H](F)COC6)cc4n3)cccc2c1 [Compound 470] | – | 29.42 | 4.1 |
| CCOc1nc(C(C)(F)F)ccc1-c1ccc2cnc(CNC(=O)c3cc(F)c4c(c3)S(=O)(=O)[C@@H](F)COC4)cc2n1 [Compound 471] | – | 25.44 | 8.2 |
| CCOc1nn(-c2ccc3cnc(CNC(=O)c4cc(Cl)c5c(c4)S(=O)(=O)[C@@H](F)COC5)cc3n2)cc1F [Compound 472] | 11 | 39.75 | – |
| O=C(NCc1cc2nc(-n3cc(F)c(OC(F)F)n3)ccc2cn1)c1cc(F)c2c(c1)S(=O)(=O)[C@@H](F)COC2 [Compound 473] | 17.1 | 22.61 | – |
| O=C(NCc1cc2nc(-n3cc(F)c(OC(F)F)n3)ccc2cn1)c1cc(Cl)c2c(c1)S(=O)(=O)[C@@H](F)COC2 [Compound 474] | 18.6 | 42.97 | – |
| CCOc1nc([C@@H](F)CF)ccc1-c1ccc2cnc(CNC(=O)c3cc(Cl)c4c(c3)S(=O)(=O)[C@@H](F)COC4)cc2n1 [Compound 475] | 7.1 | 37.21 | – |
| O=C(NCc1cc2nc(-c3ccc([C@@H](F)C(F)F)c(C4CC4)n3)ccc2cn1)c1cc(C(F)F)c2c(c1)S(=O)(=O)[C@@H](F)COC2 [Compound 476] | 22.4 | 21.45 | – |
